Test results as given in ChEMBL document CHEMBL5055643, “Sophoraflavanone G Resensitizes ABCG2-Overexpressing Multidrug-Resistant Non-Small-Cell Lung Cancer Cells to Chemotherapeutic Drugs” (J Nat Prod, 2021).

How the values were obtained:
Assay type in all cases: functional
NCI-H460 [1] = assay: Chemo-sensitizing activity against human NCI-H460 cells assessed as reversal fold at 1 uM measured after 72 hrs in presence of mitoxantrone by CCK8 assay relative to control
NCI-H460 [2] = assay: Chemo-sensitizing activity against mitoxantrone-selected ABCG2-overexpressing human NCI-H460/MX20 cells assessed as reversal fold at 1 uM measured after 72 hrs in presence of mitoxantrone by CCK8 assay relative to control
NCI-H460 [3] = assay: Chemo-sensitizing activity against human NCI-H460 cells assessed as reversal fold at 1 uM measured after 72 hrs in presence of topotecan by CCK8 assay relative to control
NCI-H460 [4] = assay: Chemo-sensitizing activity against mitoxantrone-selected ABCG2-overexpressing human NCI-H460/MX20 cells assessed as reversal fold at 1 uM measured after 72 hrs in presence of topotecan by CCK8 assay relative to control
NCI-H460 [5] = assay: Chemo-sensitizing activity against human NCI-H460 cells assessed as reversal fold at 1 uM measured after 72 hrs in presence of SN-38 by CCK8 assay relative to control
NCI-H460 [6] = assay: Chemo-sensitizing activity against mitoxantrone-selected ABCG2-overexpressing human NCI-H460/MX20 cells assessed as reversal fold at 1 uM measured after 72 hrs in presence of SN-38 by CCK8 assay relative to control
A549 [7] = assay: Chemo-sensitizing activity against human A549 cells assessed as reversal fold at 1 uM measured after 72 hrs in presence of mitoxantrone by CCK8 assay relative to control
A549 [8] = assay: Chemo-sensitizing activity against becatecarin-selected ABCG2-overexpressing human A549/Bec150 cells assessed as reversal fold at 1 uM measured after 72 hrs in presence of mitoxantrone by CCK8 assay relative to control
A549 [9] = assay: Chemo-sensitizing activity against human A549 cells assessed as reversal fold at 1 uM measured after 72 hrs in presence of topotecan by CCK8 assay relative to control
A549 [10] = assay: Chemo-sensitizing activity against becatecarin-selected ABCG2-overexpressing human A549/Bec150 cells assessed as reversal fold at 1 uM measured after 72 hrs in presence of topotecan by CCK8 assay relative to control
A549 [11] = assay: Chemo-sensitizing activity against human A549 cells assessed as reversal fold at 1 uM measured after 72 hrs in presence of SN-38 by CCK8 assay relative to control
A549 [12] = assay: Chemo-sensitizing activity against becatecarin-selected ABCG2-overexpressing human A549/Bec150 cells assessed as reversal fold at 1 uM measured after 72 hrs in presence of SN-38 by CCK8 assay relative to control
HEK293 [13] = assay: Chemo-sensitizing activity against human HEK293 cells assessed as reversal fold at 1 uM measured after 72 hrs in presence of mitoxatrone by CCK8 assay relative to control
HEK293 [14] = assay: Chemo-sensitizing activity against ABCG2-overexpressing human HEK293/482R cells assessed as reversal fold at 1 uM measured after 72 hrs in presence of mitoxatrone by CCK8 assay relative to control
HEK293 [15] = assay: Chemo-sensitizing activity against human HEK293 cells assessed as reversal fold at 1 uM measured after 72 hrs in presence of topotecan by CCK8 assay relative to control
HEK293 [16] = assay: Chemo-sensitizing activity against ABCG2-overexpressing human HEK293 cells assessed as reversal fold at 1 uM measured after 72 hrs in presence of topotecan by CCK8 assay relative to control
HEK293 [17] = assay: Chemo-sensitizing activity against human HEK293 cells assessed as reversal fold at 1 uM measured after 72 hrs in presence of SN-38 by CCK8 assay relative to control
HEK293 [18] = assay: Chemo-sensitizing activity against ABCG2-overexpressing human HEK293/482R cells assessed as reversal fold at 1 uM measured after 72 hrs in presence of SN-38 by CCK8 assay relative to control
NCI/ADR-RES [19] = assay: Chemo-sensitizing activity against ABCB1-overexpressing human NCI/ADR-RES cells assessed as reversal fold at 1 uM measured after 72 hrs in presence of paclitaxel by CCK8 assay relative to control
OVCAR-8 [20] = assay: Chemo-sensitizing activity against human OVCAR-8 cells assessed as reversal fold at 1 uM measured after 72 hrs in presence of vincristine by CCK8 assay relative to control
NCI/ADR-RES [21] = assay: Chemo-sensitizing activity against ABCB1-overexpressing human NCI/ADR-RES cells assessed as reversal fold at 1 uM measured after 72 hrs in presence of vincristine by CCK8 assay relative to control
OVCAR-8 [22] = assay: Chemo-sensitizing activity against human OVCAR-8 cells assessed as reversal fold at 1 uM measured after 72 hrs in presence of paclitaxel by CCK8 assay relative to control
OVCAR-8 [23] = assay: Chemo-sensitizing activity against human OVCAR-8 cells assessed as reversal fold at 1 uM measured after 72 hrs in presence of colchicine by CCK8 assay relative to control
NCI/ADR-RES [24] = assay: Chemo-sensitizing activity against ABCB1-overexpressing human NCI/ADR-RES cells assessed as reversal fold at 1 uM measured after 72 hrs in presence of colchicine by CCK8 assay relative to control
KB 3-1 [25] = assay: Chemo-sensitizing activity against human KB 3-1 cells assessed as reversal fold at 1 uM measured after 72 hrs in presence of vincristine by CCK8 assay relative to control
KB-V1 [26] = assay: Chemo-sensitizing activity against ABCB1-overexpressing human KB-V1 cells assessed as reversal fold at 1 uM measured after 72 hrs in presence of vincristine by CCK8 assay relative to control
KB 3-1 [27] = assay: Chemo-sensitizing activity against human KB 3-1 cells assessed as reversal fold at 1 uM measured after 72 hrs in presence of paclitaxel by CCK8 assay relative to control
KB-V1 [28] = assay: Chemo-sensitizing activity against ABCB1-overexpressing human KB-V1 cells assessed as reversal fold at 1 uM measured after 72 hrs in presence of paclitaxel by CCK8 assay relative to control
KB 3-1 [29] = assay: Chemo-sensitizing activity against human KB 3-1 cells assessed as reversal fold at 1 uM measured after 72 hrs in presence of colchicine by CCK8 assay relative to control
KB-V1 [30] = assay: Chemo-sensitizing activity against ABCB1-oveexpressing human KB-V1 cells assessed as reversal fold at 1 uM measured after 72 hrs in presence of colchicine by CCK8 assay relative to control
HEK293 [31] = assay: Chemo-sensitizing activity against human HEK293 cells assessed as reversal fold at 1 uM measured after 72 hrs in presence of vincristine by CCK8 assay relative to control
HEK293 [32] = assay: Chemo-sensitizing activity against ABCB1-overexpressing human HEK293/MDR19 cells assessed as reversal fold at 1 uM measured after 72 hrs in presence of vincristine by CCK8 assay relative to control
HEK293 [33] = assay: Chemo-sensitizing activity against human HEK293 cells assessed as reversal fold at 1 uM measured after 72 hrs in presence of paclitaxel by CCK8 assay relative to control
HEK293 [34] = assay: Chemo-sensitizing activity against ABCB1-overexpressing human HEK293/MDR19 cells assessed as reversal fold at 1 uM measured after 72 hrs in presence of paclitaxel by CCK8 assay relative to control
HEK293 [35] = assay: Chemo-sensitizing activity against human HEK293 cells assessed as reversal fold at 1 uM measured after 72 hrs in presence of colchicine by CCK8 assay relative to control
HEK293 [36] = assay: Chemo-sensitizing activity against ABCB1-overexpressing human HEK293/MDR19 cells assessed as reversal fold at 1 uM measured after 72 hrs in presence of colchicine by CCK8 assay relative to control

## COc1ccc2c3c([nH]c2c1)[C@H](CC(C)C)N1C(=O)[C@H](CCC(=O)OC(C)(C)C)NC(=O)[C@@H]1C3
NCI-H460 [1]
  fold change (FC): 1.7
NCI-H460 [2]
  fold change (FC): 18
NCI-H460 [3]
  fold change (FC): 2.7
NCI-H460 [4]
  fold change (FC): 22.6
NCI-H460 [5]
  fold change (FC): 3
NCI-H460 [6]
  fold change (FC): 20.6
A549 [7]
  fold change (FC): 2
A549 [8]
  fold change (FC): 14.9
A549 [9]
  fold change (FC): 1.7
A549 [10]
  fold change (FC): 9.1
A549 [11]
  fold change (FC): 1.6
A549 [12]
  fold change (FC): 13.2
HEK293 [13]
  fold change (FC): 1.1
HEK293 [14]
  fold change (FC): 11.9
HEK293 [15]
  fold change (FC): 0.9
HEK293 [16]
  fold change (FC): 5.8
HEK293 [17]
  fold change (FC): 1
HEK293 [18]
  fold change (FC): 24.1

## COc1cc2c(cc1OC)CN(CCc1ccc(NC(=O)c3cc(OC)c(OC)cc3NC(=O)c3cnc4ccccc4c3)cc1)CC2 [TARIQUIDAR]
NCI/ADR-RES [19]
  fold change (FC): 1040
OVCAR-8 [20]
  fold change (FC): 1.3
NCI/ADR-RES [21]
  fold change (FC): 174
OVCAR-8 [22]
  fold change (FC): 1
OVCAR-8 [23]
  fold change (FC): 1
NCI/ADR-RES [24]
  fold change (FC): 45
KB 3-1 [25]
  fold change (FC): 1.1
KB-V1 [26]
  fold change (FC): 786
KB 3-1 [27]
  fold change (FC): 0.9
KB-V1 [28]
  fold change (FC): 1281
KB 3-1 [29]
  fold change (FC): 1.2
KB-V1 [30]
  fold change (FC): 50.7
HEK293 [31]
  fold change (FC): 1.5
HEK293 [32]
  fold change (FC): 245.2
HEK293 [33]
  fold change (FC): 1
HEK293 [34]
  fold change (FC): 309
HEK293 [35]
  fold change (FC): 1
HEK293 [36]
  fold change (FC): 12.9
